Results from patent publication US20260078111A1, “CARBONIC ANHYDRASE ENZYME INHIBITORS AND METHODS OF USE THEREOF” (RUTGERS, THE STATE UNIVERSITY OF NEW JERSEY, priority 2022, published 2026).
Where two headings read alike, the source gives them in different places.

Legend:
[1] = tested on: mast cell development from murine bone marrow cells; test: In vitro mast cell development culture assay (IL-3, flow cytometry); type: cell-based, mice; conditions: for Percent Inhibition at 10 μm: in vitro mast cell cultures; for inhibition at 15 µM: read-out: POI (percent of inhibition based on MC numbers)
Protocol: To further test the ability of 4-(3-hydroxy-1-(4-methoxybenzyl)-2-oxoindolin-3-yl)benzenesulfonamide to inhibit mast cell development, an established mast cell culture assay was employed (Henry, E. K., et al., J Exp Med, 2016. 213(9): p. 1663-73). As a positive control for mast cell development, bone marrow cells were isolated from the femur of mice and cultured in the presence of 10 ng/mL of IL-3 and vehicle (1:10, DMSO/RPMI complete media) for seven days and mast cells were identified by flow cytometric analysis as (c-Kit+ FceRIa+ CD49b− cells).
In vitro Mast Cell development: Briefly, 1×10^6 bone marrow-resident progenitor cells were isolated from the femur of mice and cultured in complete media supplemented with 10 ng/mL of rIL-3 for a period of […]. Mast cells were identified by their expression of the surface molecules FcεRIα and c-Kit via flow cytometric analysis. In addition to IL-3, cultures were treated with vehicle or increasing concentrations of Car enzyme inhibitors at the indicated concentrations.

recombinant human Car1 = recombinant human Car1 (Homo sapiens, UniProt P00915); test: Stopped-flow assay of Car1 enzyme inhibition (IC50); type: biochemical
Protocol: Stopped-flow: IC50 values were established using an SX20 stopped-flow spectrometer from […]. In one syringe of the SX20, recombinant human Car1 was kept at a concentration of 9 μM in a sodium phosphate buffer and inhibitors were added to this solution at 0 nM, 10 nM, 20 nM, 80 nM and 100 nM. In a second syringe, a saturated CO2 solution was mixed with 0.2 mM phenol red. This series of dilutions allow for the evaluation of how quickly Car1 can metabolize the CO2 in the absence of an inhibitor and for the determination of whether that process is inhibited as increasing concentrations of compounds are added.

[2] = Mus musculus, Mast cell, Table 3, at 15 uM

Sequence of recombinant human Car1 (P00915 whole entry): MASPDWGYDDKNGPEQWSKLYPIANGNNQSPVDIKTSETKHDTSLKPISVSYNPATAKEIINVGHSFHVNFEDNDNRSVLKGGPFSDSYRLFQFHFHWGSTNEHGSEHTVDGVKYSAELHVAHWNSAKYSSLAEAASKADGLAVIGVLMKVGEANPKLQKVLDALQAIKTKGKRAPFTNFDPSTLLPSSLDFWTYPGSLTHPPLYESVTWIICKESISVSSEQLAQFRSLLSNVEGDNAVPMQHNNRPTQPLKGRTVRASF

**Q.** CN1C(=O)C(O)(c2ccc(S(N)(=O)=O)cc2)c2ccccc21 (stereo not drawn) was tested. Which “Percent Inhibition at 10 μm” value [1] did it give?
**A.** 84%

**Q.** Which “Percent Inhibition at 10 μm” value [1] does the source give for NS(=O)(=O)c1ccc(C2(O)C(=O)N(Cc3ccc(F)cc3)c3ccccc32)cc1 (stereo not drawn) here?
**A.** 98%

**Q.** How did the “Percent Inhibition at 10 μm” value [1] turn out when NS(=O)(=O)c1ccc(C2(O)C(=O)Nc3ccccc32)cc1 (stereo not drawn) was run?
**A.** 94%

**Q.** Which “Percent Inhibition at 10 μm” value [1] does the source give for CCN1C(=O)C(O)(c2ccc(S(N)(=O)=O)cc2)c2ccccc21 (stereo not drawn) here?
**A.** 99%

**Q.** For CCN1C(=O)C(F)(c2ccc(S(N)(=O)=O)cc2)c2ccccc21 (stereo not drawn), which “Percent Inhibition at 10 μm” value [1] is on record?
**A.** 99%

**Q.** How did the “Percent Inhibition at 10 μm” value [1] turn out when NS(=O)(=O)c1ccc(C2(F)C(=O)N(Cc3ccc(F)cc3)c3ccccc32)cc1 (stereo not drawn) was run?
**A.** 98%

**Q.** Which “Percent Inhibition at 10 μm” value [1] does the source give for CN1C(=O)C(F)(c2ccc(S(N)(=O)=O)cc2)c2ccccc21 (stereo not drawn) here?
**A.** 100%

**Q.** Which “Percent Inhibition at 10 μm” value [1] does the source give for COc1ccc(CN2C(=O)C(F)(c3ccc(S(N)(=O)=O)cc3)c3ccccc32)cc1 (stereo not drawn) here?
**A.** 99%

**Q.** With NS(=O)(=O)c1ccc(C2(O)C(=O)N(Cc3ccc(OC(F)F)cc3)c3ccccc32)cc1 (stereo not drawn) [NEM-4A, 4-[1-[[4-(difluoromethoxy)phenyl]methyl]-3-hydroxy-2-oxo-indolin-3-yl]benzenesulfonamide] as the compound, how does the inhibition at 15 µM ([1]; Mus musculus, Mast cell) read?
**A.** 82%

**Q.** What does the source list for NS(=O)(=O)c1ccc(C2(O)C(=O)N(Cc3ccc(F)c(F)c3)c3ccccc32)cc1 (stereo not drawn) [NEM-9A, 4-[1-[(3,4-difluorophenyl)methyl]-3-hydroxy-2-oxo-indolin-3-yl]benzenesulfonamide]?
**A.** IC50 (recombinant human Car1): 51.3 nM; inhibition at 15 µM [1, 2]: 18%

**Q.** How did the IC50 (recombinant human Car1) turn out when NS(=O)(=O)c1ccc(C2(O)C(=O)N(Cc3cc[n+]([O-])cc3)c3ccccc32)cc1 (stereo not drawn) [NEM-10A, 4-[3-hydroxy-1-[(1-oxidopyridin-1-ium-4-yl)methyl]-2-oxo-indolin-3-yl]benzenesulfonamide] was run?
**A.** 33.8 nM

**Q.** And the inhibition at 15 µM [1, 2]?
**A.** 11%

**Q.** With NS(=O)(=O)c1ccc(C2(O)C(=O)N(CC3CCOCC3)c3ccccc32)cc1 (stereo not drawn) [NEM-12A, 4-[3-hydroxy-2-oxo-1-(tetrahydropyran-4-ylmethyl)indolin-3-yl]benzenesulfonamide] as the compound, how does the IC50 (recombinant human Car1) read?
**A.** 62.5 nM

**Q.** What about the inhibition at 15 µM [1, 2] of the same compound?
**A.** 6%

**Q.** COc1ccc(N2C(=O)C(O)(c3ccc(S(N)(=O)=O)cc3)c3ccccc32)cc1 (stereo not drawn) [NEM-13A, 4-[3-hydroxy-1-(4-methoxyphenyl)-2-oxo-indolin-3-yl]benzenesulfonamide] was tested. Which inhibition at 15 µM ([1]; Mus musculus, Mast cell) did it give?
**A.** 87%

**Q.** What does the source list for NS(=O)(=O)c1ccc(C2(O)C(=O)N(Cc3ccc(N4CCOCC4)cc3)c3ccccc32)cc1 (stereo not drawn) [NEM-14A, 4-[3-hydroxy-1-[(4-morpholinophenyl)methyl]-2-oxo-indolin-3-yl]benzenesulfonamide]?
**A.** IC50 (recombinant human Car1): 34 nM; inhibition of mast cell numbers (POI) compared to MZ at 126 uM ([1]; 10 uM): comparable inhibition of mast cell numbers with the control, MZ, at 126 uM; inhibition of mast cell numbers (POI) compared to MZ at 126 uM ([1]; 15 uM): significantly higher inhibition than MZ at 126 uM; inhibition at 15 µM [1, 2]: 98%

**Q.** Which IC50 (recombinant human Car1) does the source give for COc1ccc2c(N3C(=O)C(O)(c4ccc(S(N)(=O)=O)cc4)c4ccccc43)cccc2c1 (stereo not drawn) [NEM-15A, 4-[3-hydroxy-1-(6-methoxy-1-naphthyl)-2-oxo-indolin-3-yl]benzenesulfonamide] here?
**A.** 35.3 nM

**Q.** What about the “inhibition of mast cell numbers (POI) compared to MZ at 126 uM” value (from here on “inhibition … compared to MZ at 126 uM”) ([1]; 10 uM) of the same compound?
**A.** significantly higher inhibition of mast cell numbers than MZ at 126 uM

**Q.** And the “inhibition … compared to MZ at 126 uM” value ([1]; 15 uM)?
**A.** significantly higher inhibition of mast cell numbers than MZ at 126 uM

**Q.** And the inhibition at 15 µM [1, 2]?
**A.** 100%

**Q.** With NS(=O)(=O)c1ccc(C2(O)C(=O)N(Cc3ccc(N4CCCCC4)cc3)c3ccccc32)cc1 (stereo not drawn) [NEM-19A, 4-[3-hydroxy-2-oxo-1-[[4-(1-piperidyl)phenyl]methyl]indolin-3-yl]benzenesulfonamide] as the compound, how does the inhibition at 15 µM ([1]; Mus musculus, Mast cell) read?
**A.** 99%

**Q.** With NS(=O)(=O)c1ccc(C2(O)C(=O)N(Cc3ccc(N4CCC(F)(F)CC4)cc3)c3ccccc32)cc1 (stereo not drawn) [NEM-20A, 4-[1-[[4-(4,4-difluoro-1-piperidyl)phenyl]methyl]-3-hydroxy-2-oxo-indolin-3-yl]benzenesulfonamide] as the compound, how does the inhibition at 15 µM ([1]; Mus musculus, Mast cell) read?
**A.** 100%

**Q.** Which inhibition at 15 µM ([1]; Mus musculus, Mast cell) does the source give for NS(=O)(=O)c1ccc(C2(O)C(=O)N(Cc3ccc(C4CCNCC4)cc3)c3ccccc32)cc1 (stereo not drawn) [NEM-21A, 4-[3-hydroxy-2-oxo-1-[[4-(4-piperidyl)phenyl]methyl]indolin-3-yl]benzenesulfonamide] here?
**A.** 81%

**Q.** Which inhibition at 15 µM ([1]; Mus musculus, Mast cell) does the source give for NS(=O)(=O)c1ccc(C2(O)C(=O)N(Cc3ccc(N4CCNCC4)cc3)c3ccccc32)cc1 (stereo not drawn) [NEM-22A, 4-[3-hydroxy-2-oxo-1-[(4-piperazin-1-ylphenyl)methyl]indolin-3-yl]benzenesulfonamide] here?
**A.** 53%

**Q.** How did the IC50 (recombinant human Car1) turn out when NS(=O)(=O)c1ccc(C2(O)C(=O)N(Cc3ccc(-c4ccncc4)cc3)c3ccccc32)cc1 (stereo not drawn) [NEM-23A, 4-[3-hydroxy-2-oxo-1-[[4-(4-pyridyl)phenyl]methyl]indolin-3-yl]benzenesulfonamide] was run?
**A.** 77 nM

**Q.** And the “inhibition of mast cell numbers” value ([1]; 100 nM, titration, FIG. 3)?
**A.** inhibits mast cell numbers

**Q.** What about the “inhibition … compared to MZ at 126 uM” value ([1]; 5 uM) of the same compound?
**A.** comparable level than MZ at 126 uM

**Q.** What about the “inhibition … compared to MZ at 126 uM” value ([1]; 10 uM) of the same compound?
**A.** comparable level than MZ at 126 uM

**Q.** What about the “inhibition … compared to MZ at 126 uM” value ([1]; 15 uM) of the same compound?
**A.** comparable level than MZ at 126 uM

**Q.** What about the inhibition at 0.25 µM ([1]; Mus musculus, Mast cell, 250 nM, titration, FIG. 3, read-out: inhibition of mast cell numbers) of the same compound?
**A.** ~50%

**Q.** And the inhibition at 15 µM [1, 2]?
**A.** 99%

**Q.** With NS(=O)(=O)c1ccc(C2(O)C(=O)N(Cc3ccc(N4CCCC4)cc3)c3ccccc32)cc1 (stereo not drawn) [NEM-24A, 4-[3-hydroxy-2-oxo-1-[(4-pyrrolidin-1-ylphenyl)methyl]indolin-3-yl]benzenesulfonamide] as the compound, how does the IC50 (recombinant human Car1) read?
**A.** 44.3 nM

**Q.** And the inhibition at 15 µM [1, 2]?
**A.** 99%

**Q.** NS(=O)(=O)c1ccc(C2(O)C(=O)N(Cc3ccc(-n4ccnc4)cc3)c3ccccc32)cc1 (stereo not drawn) [NEM-25A, 4-[3-hydroxy-1-[(4-imidazol-1-ylphenyl)methyl]-2-oxo-indolin-3-yl]benzenesulfonamide] was tested. Which inhibition at 15 µM ([1]; Mus musculus, Mast cell) did it give?
**A.** 87%

**Q.** With NS(=O)(=O)c1ccc(C2(O)C(=O)N(Cc3ccc4ncccc4c3)c3ccccc32)cc1 (stereo not drawn) [NEM-26A, 4-[3-hydroxy-2-oxo-1-(6-quinolylmethyl)indolin-3-yl]benzenesulfonamide] as the compound, how does the inhibition at 15 µM ([1]; Mus musculus, Mast cell) read?
**A.** 82%

**Q.** Which inhibition at 15 µM ([1]; Mus musculus, Mast cell) does the source give for NS(=O)(=O)c1ccc(C2(O)C(=O)N(c3ccc(Br)cc3)c3ccccc32)cc1 (stereo not drawn) [NEM-27A, 4-[1-(4-bromophenyl)-3-hydroxy-2-oxo-indolin-3-yl]benzenesulfonamide] here?
**A.** 94%

**Q.** Which inhibition at 15 µM ([1]; Mus musculus, Mast cell) does the source give for CC(C)(C)OC(=O)N1CCC(c2ccc(CN3C(=O)C(O)(c4ccc(S(N)(=O)=O)cc4)c4ccccc43)cc2)CC1 (stereo not drawn) [NEM-30A, tert-butyl 4-[4-[[3-hydroxy-2-oxo-3-(4-sulfamoylphenyl)indolin-1-yl]methyl]phenyl]piperidine-1-carboxylate] here?
**A.** 100%

**Q.** CC(C)(C)OC(=O)N1CCN(c2ccc(CN3C(=O)C(O)(c4ccc(S(N)(=O)=O)cc4)c4ccccc43)cc2)CC1 (stereo not drawn) [NEM-32A, tert-butyl 4-[4-[[3-hydroxy-2-oxo-3-(4-sulfamoylphenyl)indolin-1-yl]methyl]phenyl]piperazine-1-carboxylate] was tested. Which inhibition at 15 µM ([1]; Mus musculus, Mast cell) did it give?
**A.** 100%

**Q.** With NS(=O)(=O)c1ccc(C2(O)C(=O)N(c3cccc4cc(F)ccc34)c3ccccc32)cc1 (stereo not drawn) [NEM-34A, 4-[1-(6-fluoro-1-naphthyl)-3-hydroxy-2-oxo-indolin-3-yl]benzenesulfonamide] as the compound, how does the inhibition at 15 µM ([1]; Mus musculus, Mast cell) read?
**A.** 99%

**Q.** Which inhibition at 15 µM ([1]; Mus musculus, Mast cell) does the source give for NS(=O)(=O)c1ccc(C2(O)C(=O)N(c3cccc4cc(Cl)ccc34)c3ccccc32)cc1 (stereo not drawn) [NEM-35A, 4-[1-(6-chloro-1-naphthyl)-3-hydroxy-2-oxo-indolin-3-yl]benzenesulfonamide] here?
**A.** 99%

**Q.** How did the inhibition at 15 µM ([1]; Mus musculus, Mast cell) turn out when NS(=O)(=O)c1ccc(C2(O)C(=O)N(c3cccc4cc(N5CCOCC5)ccc34)c3ccccc32)cc1 (stereo not drawn) [NEM-36A, 4-[3-hydroxy-1-(6-morpholino-1-naphthyl)-2-oxo-indolin-3-yl]benzenesulfonamide] was run?
**A.** 91%

**Q.** Which IC50 (recombinant human Car1) does the source give for NS(=O)(=O)c1ccc(C2(O)C(=O)N(c3cccc4cc5c(cc34)OCO5)c3ccccc32)cc1 (stereo not drawn) [NEM-37A, 4-(1-benzo[f][1,3]benzodioxol-5-yl-3-hydroxy-2-oxo-indolin-3-yl)benzenesulfonamide] here?
**A.** 5.3 nM

**Q.** What about the inhibition at 15 µM [1, 2] of the same compound?
**A.** 100%

**Q.** With NS(=O)(=O)c1ccc(C2(O)C(=O)N(c3cccc4cnccc34)c3ccccc32)cc1 (stereo not drawn) [NEM-38A, 4-[3-hydroxy-1-(5-isoquinolyl)-2-oxo-indolin-3-yl]benzenesulfonamide] as the compound, how does the inhibition at 15 µM ([1]; Mus musculus, Mast cell) read?
**A.** 63%

**Q.** How did the inhibition at 15 µM ([1]; Mus musculus, Mast cell) turn out when NS(=O)(=O)c1ccc(C2(O)C(=O)N(Cc3ccc4c(c3)OCO4)c3ccccc32)cc1 (stereo not drawn) [NEM-41A, 4-[1-(1,3-benzodioxol-5-ylmethyl)-3-hydroxy-2-oxo-indolin-3-yl]benzenesulfonamide] was run?
**A.** 64%

**Q.** NS(=O)(=O)c1ccc(C2(O)C(=O)N(Cc3ccc(-c4ccnc(C(F)(F)F)c4)cc3)c3ccccc32)cc1 (stereo not drawn) [NEM-45A, 4-[3-hydroxy-2-oxo-1-[[4-[2-(trifluoromethyl)-4-pyridyl]phenyl]methyl]indolin-3-yl]benzenesulfonamide] was tested. Which inhibition at 15 µM ([1]; Mus musculus, Mast cell) did it give?
**A.** 100%

**Q.** With COc1ccc(CN2C(=O)C(O)(c3ccc(S(N)(=O)=O)cc3)c3ccccc32)cc1 (stereo not drawn) [drawing 86] as the compound, how does the “Percent Inhibition at 10 μm” value [1] read?
**A.** 91%
